{"source": "patent US20110104080A1", "about": "“Oral Compositions for Treatment of Dry Mouth” (priority 2009, published 2011)", "experiment": "Water gain (moisture uptake) of treated cotton swatches, no rinse / with rinse", "format": "physicochemical", "conditions": "dried", "description": "Table 2: Water gain (mg) for cotton swatches with different treatments. […] No-rinse samples were treated, dried then incubated to monitor moisture uptake. With rinse samples were treated, rinsed with water, dried then incubated to monitor moisture uptake. Control represents swatches treated with water only.\nFor table 2, the test method is as follows: For “no rinse”: 1×1 cm cotton swatches (triplicates) are placed into a weigh boat where each is labeled according to treatment type and number. Initial weights are recorded for each sample. 500 uL of polymer solution is applied to each cotton swatch sample then reweighed as wet weight. Samples are allowed to dry overnight at room temperature conditions. Sample weights are recorded in the following morning as “no rinse”. Samples are then placed on a tray in the incubator at 37° C., 3.3% CO2, and approximately 90% humidity (the metal tray at the bottom of the incubator has plenty of distilled water in the pan to ensure constant humidity). Opening and closing the incubator door frequently causes parameters to shift so minimizing this will ensure proper control over parameter. Samples are incubated for 8 hours then reweighed. The weights represent the moisture uptake ability for the treated samples. […] Samples are weighed and placed in the incubator the following morning similar to above described procedure and weights are recorded as “with rinse”.", "data": [{"smiles": "OCC(O)CO", "note": "[40% glycerin, glycerin]", "values": [{"measurement": "Water gain", "setting": "No Rinse, incubated 8 hours at 37° C., approximately 90% humidity", "value": 393.3, "unit": "mg"}, {"measurement": "Water gain", "setting": "With Rinse, rinsed with water, then incubated", "value": 126.9, "unit": "mg"}]}]}
